Source: US11986532B2 (Arvinas Operations, Inc., priority 2021, dated 2024)
Like-named read-outs stand apart in the source and are kept apart here.

Biological target: T1, BCL6 (Homo sapiens, UniProt P41182)
T1 construct: endogenous in cells; host or cells: T47D breast cancer epithelial cells
Assay: Immunofluorescence protocol for high content imaging of BCL6 (degradation) in T47D cells, 3 days compound treatment
Type: cell-based
Details: for Dmax: read-out: Mean Dmax (%)** category; for DC50: read-out: Mean DC50 (nM)* category
Method: Immunofluorescence Protocol for High Content Imaging of BCL6
T47D cells were seeded in 100 μl volume of RPMI1640-10% FBS in a 96-well black/clear bottom plates for adherent lines (Corning #3904).
Day 1. T47D breast cancer epithelial cells were seeded at a density so that confluence is ˜70-90% at endpoint. Cells were seeded at 7K/0.1 ml/well the morning prior to the addition of exemplary bifunctional degradation compounds.
Day 2. Prepare an 11 point 3-fold serial dilution of exemplary bifunctional compound in DMSO and aliquot an appropriate volume to cell growth media to generate a 2× final concentration of exemplary bifunctional compound. Add an equal volume (0.1 ml) of 2× exemplary bifunctional compound/media mix to previously plated cells, for a final top concentration in aqueous cell growth media of 0.1 or 1 μM. Incubate for 3 days at 37° C., 5% CO2.
Day 5 Immunofluorescence. Discard cell media. Wash wells with 200 μl of room temperature phosphate-buffered saline (PBS). Prepared 4% paraformaldehyde (PFA) from 16% PFA (Electron Microscopy Sciences #15710) using 1×PBS. Fifty μl of 4% PF was added to each well and incubate for 15 minutes at room temperature to fix the cells. The PFA was aspirated and the cells washed twice with PBS (200 μl)).
Prepared 0.1% Triton X-100 in PBS using 10% triton X-100 stock. The cells were permeabilized by adding 100 ul of the 0.1% Triton X-100 in PBS to each well to permeabilize cells and incubating at room temperature for 15 minutes. Cells were washed twice with PBS.
Prepared 3% BSA/PBS (from Thermofisher #37515 Blocker BSA in TBS, 10%), and 100 ul was added to each well. The cells were incubated for at least 1 hour at room temperature.
Prepared 1% BSA/PBS using Blocker BSA/PBS, and the 3% BSA/PBS removed from the wells.
For no primary antibody controls, 50 μl 1% BSA/PBS was added.
Primary antibody (BCL6 Rb Ab, CST-14895, Cell Signaling) was diluted 1:300 in 1% BSA/PBS using Blocker BSA/PBS.
Fifty μl of primary antibody added to all remaining wells (i.e., all wells other than the primary antibody controls) and the cells were incubated overnight at 4° C. with slow orbital movement.
Day 6. Contents of the wells was removed and the cells washed four times with 200 ul PBS. 1% BSA/PBS was prepared using Blocker BSA in PBS.
Diluted secondary antibody goat anti-Rb IgG Alexa-488 1:1000, and cell mask-Alexa-647 1:3000 in 1% BSA/PBS in the same mix. Add 50 μl to each well and incubate at room temperature for 1 hour in the dark.
Cells were washed three times with 200 ul PBS, and then incubated for 10 minutes with 100 ul Hoechst dye at 1 μg/mL (20 mM stock) to stain cell nuclei. Wells were then washed with 200 μl PBS, and 100 ul of PBS was added to each well and the plate covered plate with a plastic opaque cover. Plates were stored at 4° C. and covered in aluminum foil until imaged.
Plates were equilibrated to room temperature prior to reading. The bottom of the plate was wiped with 70% isopropanol immediately prior to imaging.
10×, 4 fields/well, include Top hat smoothing in the analysis protocol.
16% paraformaldehyde: Electron Microscopy Sciences #15710
Hoechst: Thermofisher #62249
Blocker BSA in PBS, 10%: Thermofisher #37515
Blocker BSA in TBS, 10%: Thermofisher #37520
Goat anti-rabbit or mouse AlexaFluor-488: Thermofisher #A11008
Cell mask deep red AlexaFluor-647: Thermofisher #C10046
Wash buffer, PBS: 20×PBS, Thermofisher

[1] = T47D cells, 3 days compound treatment

Row | DC50 [1] | Dmax [1] | SMILES | Dmax (T47D) | DC50
1 | < 10 nM | < 50% | CNC(=O)COc1cc2cc(Nc3nc(N4CCC(CN5CCC6(CN(c7ccc8c(c7)C(=O)N(C7CCC(=O)NC7=O)C8=O)C6)C(F)(F)C5)CC4)ncc3Cl)ccc2n(CCOC)c1=O (centres unmarked) [Compound 126, 2-{[6-({5-chloro-2-[4-({2-[2-(2,6-dioxopiperidin-3-yl)-1,3-dioxo-2,3-dihydro-1H-isoindol-5-yl]-5,5-difluoro-2,7-diazaspiro[3.5]nonan-7-yl}methyl)piperidin-1-yl]pyrimidin-4-yl}amino)-1-(2-methoxyethyl)-2-oxo-1,2-dihydroquinolin-3-yl]oxy}-N-methylacetamide] |  | 
2 | 50 to 100 nM | < 50% | CNC(=O)COc1cc2cc(Nc3nc(N4CC(C)OC(C)C4)ncc3Cl)ccc2n(CCOc2ccc3c(c2)C(=O)N(C2CCC(=O)NC2=O)C3=O)c1=O (centres unmarked) [Compound 33, 2-[(6-{[5-chloro-2-(2,6-dimethylmorpholin-4-yl)pyrimidin-4-yl]amino}-1-(2-{[2-(2,6-dioxopiperidin-3-yl)-1,3-dioxo-2,3-dihydro-1H-isoindol-5-yl]oxy}ethyl)-2-oxo-1,2-dihydroquinolin-3-yl)oxy]-N-methylacetamide] |  | 
3 | < 10 nM | ≥ 70% | CNC(=O)COc1cc2cc(Nc3nc(N4CCC(O[C@H]5C[C@H](N6CCN(c7ccc8c(c7F)CN(C7CCC(=O)NC7=O)C8=O)[C@H](C)C6)C5)CC4)ncc3Cl)ccc2n(C(C)C)c1=O (some centres unmarked) [Compound 175] |  | 
4 | ≥ 100 nM | ≥ 70% | CNC(=O)COc1cc2cc(Nc3nc(N4CCC(CN5CCC6(CC5)CN(c5ccc7c(c5)C(=O)N(C5CCC(=O)NC5=O)C7=O)C6=O)CC4)ncc3Cl)ccc2n(C(C)C)c1=O (centres unmarked) [Compound 65, 2-{[6-({5-chloro-2-[4-({2-[2-(2,6-dioxopiperidin-3-yl)-1,3-dioxo-2,3-dihydro-1H-isoindol-5-yl]-1-oxo-2,7-diazaspiro[3.5]nonan-7-yl}methyl)piperidin-1-yl]pyrimidin-4-yl}amino)-2-oxo-1-(propan-2-yl)-1,2-dihydroquinolin-3-yl]oxy}-N-methylacetamide] |  | 

Second part, the compound before the results:

Row | SMILES | DC50 [1] | Dmax [1] | Dmax (T47D) | DC50
5 | CNC(=O)COc1cc2cc(Nc3nc(N4CCC(CN5CCC6(CC5)CCN6c5ccc6c(c5)C(=O)N(C5CCC(=O)NC5=O)C6=O)CC4)ncc3Cl)ccc2n(C(C)C)c1=O (centres unmarked) [Compound 335, 2-{[6-({5-chloro-2-[4-({1-[2-(2,6-dioxopiperidin-3-yl)-1,3-dioxo-2,3-dihydro-1H-isoindol-5-yl]-1,7-diazaspiro[3.5]nonan-7-yl}methyl)piperidin-1-yl]pyrimidin-4-yl}amino)-2-oxo-1-(propan-2-yl)-1,2-dihydroquinolin-3-yl]oxy}-N-methylacetamide] |  |  | ≥ 70% | < 10 nM
6 | CNC(=O)COc1cc2cc(Nc3nc(N4CCN(CC5(F)CCN(c6cccc7c6CN(C6CCC(=O)NC6=O)C7=O)CC5)CC4)ncc3Cl)ccc2n(C(C)C)c1=O (centres unmarked) [Compound 114, 2-{[6-({5-chloro-2-[4-({1-[2-(2,6-dioxopiperidin-3-yl)-1-oxo-2,3-dihydro-1H-isoindol-4-yl]-4-fluoropiperidin-4-yl}methyl)piperazin-1-yl]pyrimidin-4-yl}amino)-2-oxo-1-(propan-2-yl)-1,2-dihydroquinolin-3-yl]oxy}-N-methylacetamide] | < 10 nM | 50 to 70% |  | 
7 | CNC(=O)COc1cc2cc(Nc3nc(N4CCC(O[C@H]5C[C@H](N6[C@H](C)CN(c7ccc8c(c7)CN(C7CCC(=O)NC7=O)C8=O)C[C@H]6C)C5)CC4)ncc3Cl)ccc2n(C(C)C)c1=O (stereo partly drawn) [Compound 250, 2-({6-[(5-chloro-2-{4-[(1r,3r)-3-[(2R,6R)-4-[2-(2,6-dioxopiperidin-3-yl)-1-oxo-2,3-dihydro-1H-isoindol-5-yl]-2,6-dimethylpiperazin-1-yl]cyclobutoxy]piperidin-1-yl}pyrimidin-4-yl)amino]-2-oxo-1-(propan-2-yl)-1,2-dihydroquinolin-3-yl}oxy)-N-methylacetamide] |  |  | 50 to 70% | < 10 nM
8 | CNC(=O)COc1cc2c(F)c(Nc3nc(N4CCC(F)(CN5CCC6(CC5)CN(c5ccc7c(c5F)CN(C5CCC(=O)NC5=O)C7=O)C6)CC4)ncc3Cl)ccc2n(C(C)C)c1=O (centres unmarked) [Compound 390, 2-{[6-({5-chloro-2-[4-({2-[2-(2,6-dioxopiperidin-3-yl)-4-fluoro-1-oxo-2,3-dihydro-1H-isoindol-5-yl]-2,7-diazaspiro[3.5]nonan-7-yl}methyl)-4-fluoropiperidin-1-yl]pyrimidin-4-yl}amino)-5-fluoro-2-oxo-1-(propan-2-yl)-1,2-dihydroquinolin-3-yl]oxy}-N-methylacetamide] |  |  | ≥ 70% | < 10 nM
9 | CNC(=O)COc1cc2c(F)c(Nc3nc(N4CCC(CN5CCC6(CC5)CC5(CN(c7ccc8c(c7)CN(C7CCC(=O)NC7=O)C8=O)C5)C6)CC4)ncc3Cl)ccc2n(C(C)C)c1=O (centres unmarked) [Compound 421, 2-{[6-({5-chloro-2-[4-({2-[2-(2,6-dioxopiperidin-3-yl)-1-oxo-2,3-dihydro-1H-isoindol-5-yl]-2,9-diazadispiro [3.1.56.14]dodecan-9-yl}methyl)piperidin-1-yl]pyrimidin-4-yl}amino)-5-fluoro-2-oxo-1-(propan-2-yl)-1,2-dihydroquinolin-3-yl]oxy}-N-methylacetamide] |  |  | ≥ 70% | < 10 nM
10 | CNC(=O)COc1cc2cc(Nc3nc(N4CCC(O[C@H]5C[C@H](N6CCC(c7ccc8c(c7F)[C@H](C)N(C7CCC(=O)NC7=O)C8=O)CC6)C5)CC4)ncc3Cl)ccc2n(C(C)C)c1=O (stereo partly drawn) [Compound 291, 2-({6-[(5-chloro-2-{4-[(1r,3r)-3-{4-[(3S)-2-(2,6-dioxopiperidin-3-yl)-4-fluoro-3-methyl-1-oxo-2,3-dihydro-1H-isoindol-5-yl]piperidin-1-yl}cyclobutoxy]piperidin-1-yl}pyrimidin-4-yl)amino]-2-oxo-1-(propan-2-yl)-1,2-dihydroquinolin-3-yl}oxy)-N-methylacetamide] |  |  | ≥ 70% | < 10 nM
11 | CNC(=O)COc1cc2cc(Nc3nc(N4CCN(C(C)(C)C5CCN(c6cccc7c6CN(C6CCC(=O)NC6=O)C7=O)CC5)CC4)ncc3Cl)ccc2n(C(C)C)c1=O (centres unmarked) [Compound 104, 2-{[6-({5-chloro-2-[4-(2-{1-[2-(2,6-dioxopiperidin-3-yl)-1-oxo-2,3-dihydro-1H-isoindol-4-yl]piperidin-4-yl}propan-2-yl)piperazin-1-yl]pyrimidin-4-yl}amino)-2-oxo-1-(propan-2-yl)-1,2-dihydroquinolin-3-yl]oxy}-N-methylacetamide] | < 10 nM | 50 to 70% |  | 
12 | CNC(=O)COc1cc2cc(Nc3nc(N4CCC(O[C@H]5C[C@H](N6CCC(c7ccc8c(c7)CN(C7CCC(=O)NC7=O)C8=O)C(F)(F)C6)C5)CC4)ncc3Cl)ccc2n(C(C)C)c1=O (some centres unmarked) [Compound 218, 2-[[6-[[5-chloro-2-[4-[3-[4-[2-(2,6-dioxo-3-piperidyl)-1-oxo-isoindolin-5-yl]-3,3-difluoro-1-piperidyl]cyclobutoxy]-1-piperidyl]pyrimidin-4-yl]amino]-1-isopropyl-2-oxo-3-quinolyl]oxy]-N-methyl-acetamide] |  |  | ≥ 70% | < 10 nM
13 | CNC(=O)COc1cc2c(F)c(Nc3nc(N4CCC(O[C@H]5C[C@H](N6CCC(c7ccc8c(c7F)CN([C@H]7CCC(=O)NC7=O)C8=O)CC6)C5)CC4)ncc3Cl)ccc2n(C(C)C)c1=O [Compound 380, 2-({6-[(5-chloro-2-{4-[(1r,3r)-3-(4-{2-[(3S)-2,6-dioxopiperidin-3-yl]-4-fluoro-1-oxo-2,3-dihydro-1H-isoindol-5-yl}piperidin-1-yl)cyclobutoxy]piperidin-1-yl}pyrimidin-4-yl)amino]-5-fluoro-2-oxo-1-(propan-2-yl)-1,2-dihydroquinolin-3-yl}oxy)-N-methylacetamide] |  |  | 50 to 70% | < 10 nM
